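Test compounds were applied to cells in 96-well plates for 48 hours at 5 doses. GI50 is the concentration that inhibits growth by half.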 The source made the active and inactive calls. No stated cut-off is given here; in the data, active = GI50 up to about 1.1 µM and inactive = higher.
Assays:
Assay in all cases: NCI-60 cell line screen, 48 h
OVCAR-5 = system: OVCAR-5
A549 = system: A549
SK-OV-3 = system: SK-OV-3
UO-31 = system: UO-31
SNB-75 = system: SNB-75
ACHN = system: ACHN
A498 = system: A498
TK-10 = system: TK-10
NCI-H522 = system: NCI-H522
NCI-H23 = system: NCI-H23
EKVX = system: EKVX
SF-295 = system: SF-295
PC-3 = system: PC-3
M14 = system: M14
COLO 205 = system: COLO 205
HOP-62 = system: HOP-62
HT-29 = system: HT-29
Hs-578T = system: Hs-578T
UACC-62 = system: UACC-62
MDA-MB-435 = system: MDA-MB-435

Row | SMILES | GI50 (OVCAR-5) | GI50 (A549) | GI50 (SK-OV-3) | GI50 (UO-31) | GI50 (SNB-75) | GI50 (ACHN) | GI50 (A498) | GI50 (TK-10) | GI50 (NCI-H522) | GI50 (NCI-H23) | GI50 (EKVX) | GI50 (SF-295) | GI50 (PC-3) | GI50 (M14) | GI50 (COLO 205) | GI50 (HOP-62) | GI50 (HT-29) | GI50 (Hs-578T) | GI50 (UACC-62) | GI50 (MDA-MB-435)
1 | Cc1cc(S(=O)(=O)Nc2nc(N)nc(N3CCOCC3)n2)c(SCC(=O)O)cc1Cl | > 10 µM (inactive) | > 10 µM (inactive) | > 10 µM (inactive) | > 10 µM (inactive) | > 10 µM (inactive) | > 10 µM (inactive) | > 10 µM (inactive) | > 10 µM (inactive) | > 10 µM (inactive) | > 10 µM (inactive) | > 10 µM (inactive) | > 10 µM (inactive) | > 10 µM (inactive) | > 10 µM (inactive) | > 10 µM (inactive) | > 10 µM (inactive) | > 10 µM (inactive) | > 10 µM (inactive) | – | –
2 | CCOP(=O)(OCC)C1C(CO)OC(n2ccc(=O)[nH]c2=O)C1O (stereo not drawn) | – | > 100 µM (inactive) | – | > 100 µM (inactive) | 35.9 µM (inactive) | > 100 µM (inactive) | > 100 µM (inactive) | > 100 µM (inactive) | > 100 µM (inactive) | – | > 100 µM (inactive) | > 100 µM (inactive) | > 100 µM (inactive) | > 100 µM (inactive) | – | > 100 µM (inactive) | > 100 µM (inactive) | > 100 µM (inactive) | > 100 µM (inactive) | –
3 | O=C1C2=Cc3ccccc3OC2(O)Oc2ccccc21 (stereo not drawn) | > 100 µM (inactive) | > 100 µM (inactive) | > 100 µM (inactive) | – | 52.2 µM (inactive) | – | > 100 µM (inactive) | > 100 µM (inactive) | – | > 100 µM (inactive) | > 100 µM (inactive) | > 100 µM (inactive) | > 100 µM (inactive) | > 100 µM (inactive) | > 100 µM (inactive) | > 100 µM (inactive) | > 100 µM (inactive) | – | > 100 µM (inactive) | > 100 µM (inactive)
4 | COc1cc(C2NCCC(c3ccccc3)(c3ccccc3)N2)cc(OC)c1OC (stereo not drawn) | – | 32.4 µM (inactive) | 78 µM (inactive) | 12.2 µM (inactive) | 41.7 µM (inactive) | 61.2 µM (inactive) | 18.7 µM (inactive) | 9.31 µM (inactive) | – | 23.4 µM (inactive) | > 100 µM (inactive) | 7.1 µM (inactive) | – | 11.7 µM (inactive) | 16.1 µM (inactive) | 34 µM (inactive) | 4.66 µM (inactive) | 26.1 µM (inactive) | 25.2 µM (inactive) | 18.5 µM (inactive)
5 | O=C(CSCC(=O)N/N=C\c1cccc([N+](=O)[O-])c1)N/N=C\c1cccc([N+](=O)[O-])c1 | – | 66.5 µM (inactive) | 52.1 µM (inactive) | 34.4 µM (inactive) | 37.1 µM (inactive) | 14 µM (inactive) | 41.1 µM (inactive) | 17.4 µM (inactive) | 43.8 µM (inactive) | 14.2 µM (inactive) | 53.6 µM (inactive) | 11.5 µM (inactive) | – | > 100 µM (inactive) | > 100 µM (inactive) | 2.01 µM (inactive) | > 100 µM (inactive) | 45.4 µM (inactive) | 70.8 µM (inactive) | > 100 µM (inactive)
6 | BrCC[N+]12CCCN1CCC2 | 21.5 µM (inactive) | 41.1 µM (inactive) | > 65.5 µM (inactive) | 13.8 µM (inactive) | 16.7 µM (inactive) | 7.26 µM (inactive) | 45.9 µM (inactive) | 14.5 µM (inactive) | 0.664 µM (active) | 18.5 µM (inactive) | 21.6 µM (inactive) | > 72.9 µM (inactive) | 17.1 µM (inactive) | 11 µM (inactive) | 4.14 µM (inactive) | > 47.3 µM (inactive) | 10.8 µM (inactive) | 0.692 µM (active) | 8.83 µM (inactive) | –
7 | c1ccc(C(NCC2CCO2)(c2ccccc2)c2ccccc2)cc1 (stereo not drawn) | 15.7 µM (inactive) | 15.2 µM (inactive) | 19.7 µM (inactive) | 12.8 µM (inactive) | 15.2 µM (inactive) | 15.7 µM (inactive) | 19.2 µM (inactive) | 13.8 µM (inactive) | 13.5 µM (inactive) | 16.3 µM (inactive) | 16.2 µM (inactive) | 15.1 µM (inactive) | 15.8 µM (inactive) | 17.1 µM (inactive) | 39.1 µM (inactive) | – | – | – | 14.7 µM (inactive) | 21.1 µM (inactive)
8 | Cc1c(S(=O)(=O)N/C(N)=N/c2ccc(Cl)cc2)sc2ccc(Cl)cc12 | 18.8 µM (inactive) | 19.1 µM (inactive) | 26.1 µM (inactive) | 15.3 µM (inactive) | 19.6 µM (inactive) | 17 µM (inactive) | 15.6 µM (inactive) | 19.9 µM (inactive) | 14 µM (inactive) | 18 µM (inactive) | 15.9 µM (inactive) | 20.7 µM (inactive) | 14.7 µM (inactive) | 17.3 µM (inactive) | 17.2 µM (inactive) | 18.5 µM (inactive) | 19.8 µM (inactive) | 21.7 µM (inactive) | 16.5 µM (inactive) | –
9 | CSC1=C(C(=O)N(COCC[Si](C)(C)C)c2ccccc2Br)CCC(C(C)(C)C)C1 (stereo not drawn) | 14.4 µM (inactive) | 17 µM (inactive) | 31.9 µM (inactive) | 12.6 µM (inactive) | 20.6 µM (inactive) | 16.4 µM (inactive) | 28.1 µM (inactive) | 23.5 µM (inactive) | 7.78 µM (inactive) | 13.8 µM (inactive) | 13.8 µM (inactive) | 9.64 µM (inactive) | 12.4 µM (inactive) | 13.1 µM (inactive) | 12.4 µM (inactive) | 18.1 µM (inactive) | 15 µM (inactive) | – | 10.9 µM (inactive) | 17.9 µM (inactive)
10 | Cc1cc2nc3c(C#N)c4c(c(Cl)n3c2cc1C)CCC4 | 25.1 µM (inactive) | – | > 100 µM (inactive) | – | > 100 µM (inactive) | 24.6 µM (inactive) | > 100 µM (inactive) | 24.7 µM (inactive) | 17.4 µM (inactive) | 24.1 µM (inactive) | 61.1 µM (inactive) | > 100 µM (inactive) | – | – | 65.8 µM (inactive) | > 100 µM (inactive) | – | – | – | 19.3 µM (inactive)
11 | CC(=O)OC1CC2c3cccc4c3C(CC2N(C)C1=O)CN4C(=O)c1ccccc1 (stereo not drawn) | 32.4 µM (inactive) | 17.5 µM (inactive) | 22.7 µM (inactive) | 16 µM (inactive) | – | 20 µM (inactive) | 21.5 µM (inactive) | 29.8 µM (inactive) | 4.24 µM (inactive) | 16.6 µM (inactive) | 22.1 µM (inactive) | 23.2 µM (inactive) | 20.2 µM (inactive) | 22.1 µM (inactive) | 23.3 µM (inactive) | 23.2 µM (inactive) | 17.9 µM (inactive) | – | 20.3 µM (inactive) | 18.4 µM (inactive)
12 | CCOC(=O)c1c(C)n(Cc2ccc(Cl)cc2Cl)c2c1cc(O)c1[nH]c3c(c12)CCCC3 | 36.2 µM (inactive) | 52 µM (inactive) | 41.2 µM (inactive) | 20.7 µM (inactive) | 23.3 µM (inactive) | 25.6 µM (inactive) | 19.5 µM (inactive) | 24.5 µM (inactive) | 16.1 µM (inactive) | 27.5 µM (inactive) | 34.6 µM (inactive) | 29.3 µM (inactive) | 19.9 µM (inactive) | 26.7 µM (inactive) | 37.1 µM (inactive) | 27.5 µM (inactive) | 24 µM (inactive) | – | 22.5 µM (inactive) | 20.3 µM (inactive)

Reference: ChEMBL document CHEMBL1201862, “PubChem BioAssay data set” (2004)
